Here are results for 2 compounds from US20100035996A1, “GLUCOSE METABOLISM STIMULATING AGENT” (Shionogi & Co Ltd, priority 2006, published 2010).

Holding throughout (assay type): in vivo
Data set [1] deals with male C57BL/6J-ob/ob mice. The experiment in a line: Glucose tolerance test in obesity model mice, administration for 1 week. The following applies: 100 mg/kg orally twice a day for a week. The procedure: (§1) The following Examples 1 to 3 were carried out in an obesity model mouse, male C57BL/6J-ob/ob mice (12-17 week old, 40-60 g) to study the effect of Compound (a) on glucose metabolism in mice.
Hydroxypropylmethyl cellulose solution (0.5% w/v, Shin-Etsu Chemical Co., Ltd) or Compound (b) suspended in the solution were orally administered at 100 mg/kg twice a day (8:00-10:00, 16:30-18:00) for a week. Food was removed in the morning (8:00-9:00) of the last day of administration. Mice were kept under fasting until the end of glucose tolerance test. In this period, the mice were allowed free access to water. The next day, glucose tolerance test was carried out in the afternoon (13:00-16:00) and then AUC was calculated as described in Example 1 (FIG. 4).

The test system of data set [2] is male C57BL/6J-ob/ob mice. The data set can be described thus: Glucose tolerance test in obesity model mice, short-term administration. The conditions noted are these: 100 mg/kg oral gavage. The method, then:
as §1
Compound (a) was administered to mice for short term and then glucose tolerance test was performed. In the morning (8:00-10:00) of the previous day of the test, hydroxypropylmethyl cellulose solution (0.5% w/v, Shin-Etsu Chemical Co., Ltd) or Compound (a) at 100 mg/kg suspended in the solution was administered by oral gavage. Food was removed just after the administration. Mice were kept under fasting until the end of glucose tolerance test. In this period, the mice were allowed free access to water. The oral administration was also performed in the evening of the previous day of the test (17:00-18:00) and in the morning of the day of the test (8:00-9:00). Glucose tolerance test was carried out in the afternoon (13:00-16:00), and AUC was calculated as described in Example 1 (FIG. 3).

The test system of data set [3] is male C57BL/6J-ob/ob mice. The data set can be described thus: Glucose tolerance test in obesity model mice, administration for 4 weeks. The conditions noted are these: for AUC of plasma glucose levels in glucose tolerance test: oral glucose 2 g/kg, 0-120 min, control 29863. The method, then: as §1
(§2) Hydroxypropylmethyl cellulose solution (0.5% w/v, Shin-Etsu Chemical Co., Ltd) or Compound (a) or (b) suspended in the solution were orally administered at 25, 50 or 100 mg/kg twice a day (8:00-10:00, 16:30-18:00) for 4 weeks. Food was removed in the morning (8:00-9:00) of the last day of administration. Mice were kept under fasting until the end of glucose tolerance test. In this period, the mice were allowed free access to water. The next day, glucose tolerance test was carried out in the afternoon (13:00-16:00). Blood was collected from tail veins just before and at 15, 30, 60 and 120 minutes after oral administration of glucose (2 g/kg) to examine plasma glucose levels. AUC (area under the curve) was calculated by the trapezoidal method from the graphs made with obtained values (FIG. 1). AUCs in mice treated with Compound (a) at 25 mg/kg, 50 mg/kg and 100 mg/kg were 25610 mg·min/dL, 20315 mg·min/dL and 15848 mg·min/dL, respectively. AUC in control mice (dosed with 0.5% hydroxypropylmethyl cellulose solution) was 29863 mg·min/dL.

The subject of data set [4] is male C57BL/6J-ob/ob mice. The data set can be described thus: Body weight change during the 4-week dosing period. The conditions noted are these: 25, 50 or 100 mg/kg orally twice a day for 4 weeks (FIG. 2). The method, then: as §1, §2
[5] abbreviates: 100 mg/kg orally twice a day for 4 weeks.

Turning to `CCS(=O)(=O)N[C@H]1CC[C@H](C(=O)Nc2ccc(N3C[C@@H](C)O[C@@H](C)C3)cc2)CC1` [Compound (b)], the “AUC compared to control mice” value with male C57BL/6J-ob/ob mice [1] was “statistically significant decrease”. Moreover, the “AUC of plasma glucose levels in glucose tolerance test” value in the data set with male C57BL/6J-ob/ob mice [1] (control 22532) was determined as 15546 mg·min/dL.

As for `CC(C)(C)S(=O)(=O)N[C@H]1CC[C@H](C(=O)Nc2ccc(C(F)(F)F)cn2)CC1` [Compound (a)], the “AUC of plasma glucose levels in glucose tolerance test” value is given as 22423 mg·min/dL with male C57BL/6J-ob/ob mice [2] (three doses (morning and evening of previous day, morning of test day), control 15033); 25610 mg·min/dL in the data set on male C57BL/6J-ob/ob mice [3] (25 mg/kg orally twice a day for 4 weeks); 20315 mg·min/dL in the data set with male C57BL/6J-ob/ob mice [3] (50 mg/kg orally twice a day for 4 weeks); 15848 mg·min/dL in the data set on male C57BL/6J-ob/ob mice [3] (setting [5]). For the same compound, the “AUC compared to control mice” value in the data set on male C57BL/6J-ob/ob mice [2] (three doses, short term) is “statistically significant decrease”; in the data set on male C57BL/6J-ob/ob mice [3] (setting [5]), “statistically significant decrease”. Moreover, the “AUC change across doses” value in the data set with male C57BL/6J-ob/ob mice [3] (25, 50, 100 mg/kg orally twice a day for 4 weeks) was “decreased with dose-dependent manner”. The “Change in body weight during the dosing period” value with male C57BL/6J-ob/ob mice [4] is recorded as “no statistically significant change”.
